Assay results reported in publication PMC10387993, “New pyrimidine-N-β-D-glucosides: synthesis, biological evaluation, and molecular docking investigations” (Turkish Journal of Chemistry, 2023).
≈ marks a conversion by molar mass, not a printed value. Read-outs that look alike come from different tables or passages of the source.

Experiments:
Type in all cases: cell-based
[1] = LDH cytotoxic activity assay, C6; conditions: rat, C6 glioma cells
Experimental: (§1) The cell lines were cultured in a cell medium (Dulbecco’s modified eagle’s or RPMI 1640) enriched with 10% (v/v) fetal bovine serum and 2% (v/v) Penicillin-Streptomycin (10,000 U/mL). First, old medium was removed out of the flask when the cells reached approximately 80% confluence. Next, cells were taken from the flasks surface using trypsin-EDTA solution and then subjected to centrifugation. Following, the cell pellet was suspended with fresh media and was inoculated into wells.
Approximately 5 × 10^3 cells in 100 μL were placed into 96-well plates as triplicates and treated with 25, 50, 75, and 100 μg/mL concentrations of test compounds at 37 °C with 5% CO2 for 24 h. LDH activity was obtained by determining absorbance at 492–630 nm using a microplate reader.

[2] = system: S. aureus MSSA ATCC 29213; test: Microdilution MIC assay; conditions: Staphylococcus aureus, 24 h, S. aureus MSSA ATCC 29213, 24 h at 35 °C; read-out: MIC
Experimental: (§2) MIC values of the compounds against bacterial strains were determined on the basis of a microwell dilution method. […] […]. Growth of microorganisms was determined visually after incubation for 24 h at 35 °C. The lowest concentration at which there was no visible growth (turbidity) was taken as the MIC.

[3] = system: E. faecalis ATCC 29212; test: Microdilution MIC assay; conditions: Enterococcus faecalis, ATCC29212, 24 h, E. faecalis ATCC 29212, 24 h at 35 °C; read-out: MIC
Experimental: as §2

[4] = system: S. mutans ATCC 35668; test: Microdilution MIC assay; conditions: S. mutans ATCC 35668, 24 h at 35 °C
Experimental: as §2

[5] = system: S. aureus MRSA ATCC 46300; test: Microdilution MIC assay; conditions: Staphylococcus aureus; S. aureus MRSA ATCC 46300, 24 h at 35 °C; read-out: MIC
Experimental: as §2

[6] = system: P. aeruginosa AGME ATCC 27853; test: Microdilution MIC assay; conditions: Pseudomonas aeruginosa, ATCC27853; P. aeruginosa AGME ATCC 27853, 24 h at 35 °C
Experimental: as §2

[7] = system: E. coli ATCC 25922; test: Microdilution MIC assay; conditions: Escherichia coli, ATCC25922; E. coli ATCC 25922, 24 h at 35 °C
Experimental: as §2

[8] = system: E. faecalis VRE ATCC 19433; test: Microdilution MIC assay; conditions: Enterococcus faecalis; E. faecalis VRE ATCC 19433, 24 h at 35 °C
Experimental: as §2

[9] = system: A. actinomycetemcomitans ATCC 33384; test: Microdilution MIC assay; conditions: Aggregatibacter actinomycetemcomitans, ATCC33384; A. actinomycetemcomitans ATCC 33384, 24 h at 35 °C
Experimental: as §2

[10] = system: S. gordonii NCTC 7870; test: Microdilution MIC assay; conditions: Streptococcus gordonii, NCTC7870; S. gordonii NCTC 7870, 24 h at 35 °C
Experimental: as §2

[11] = system: E. coli ESBL ATCC 35218; test: Microdilution MIC assay; conditions: Escherichia coli, ATCC35218; E. coli ESBL ATCC 35218, 24 h at 35 °C
Experimental: as §2

[12] = system: HT29; test: cells; conditions: Homo sapiens
Experimental: as §1
(§3) A cell suspension containing approximately 1 × 10^4 cells in 100 μL was seeded into the wells of 96-well culture plates. […]. The final volume of the wells was set to 200 μL by medium. Cell proliferation assay was evaluated by MTT (yellow tetrazolium MTT (3-(4,5-dimethylthiazolyl-2)-2,5-diphenyltetrazolium bromide) methods. Briefly, an MTT stock solution (5 mg of MTT/mL of distilled water) was filtered and kept at −20 °C until use. The cells were exposed to an MTT reagent (consisting of one parts of MTT stock solutions and nine parts of fresh RPMI 1640 without phenol red) for 4 h to form MTT formazan dye followed by the dye dissolved in DMSO with Sorenson’s buffer for 30 min at room temperature and then the plate was measured at 560 nm, with 690 nm as a reference interval, using a microplate reader. Each experiment was repeated at least three times for each cell line.
(§4) IC50 value is a concentration that inhibits half of the cells in vitro. The half maximal inhibitory concentration (IC50) of the test and control compounds was calculated using XLfit5 or excel spreadsheet and represent in μM at 95% confidence intervals. The proliferation assay results were expressed as the percent inhibition according to the following formula: % Inhibition = [1 - (Absorbance of Treatments /Absorbance of DMSO) × 100]. Three dose response parameters (GI50, TGI, LC50) were calculated according to the following formulas using the absorbance measurements of time zero (Tz), control growth (C), and test growth in the presence of drug (Ti). Growth inhibition of 50% (GI50) was calculated from [(Ti-Tz)/(C-Tz)] × 100 = 50, which is the drug concentration resulting in a 50% reduction in the net growth increase in control cells during the drug incubation. The drug concentration resulting in total growth inhibition (TGI) was calculated from Ti = Tz. The LC50 indicating a net loss of cells following treatment was calculated from [(Ti-Tz)/Tz] × 100 = −50.

[13] = system: HeLa; test: cells; conditions: Homo sapiens
Experimental: as §1, §3, §4

[14] = system: Hep3B; test: cells; conditions: Homo sapiens
Experimental: as §1, §3, §4

[15] = system: C6 (Rat brain glioma); test: cells; conditions: Rattus norvegicus
Experimental: as §1, §3, §4

[16] = system: A549; test: cells; conditions: Homo sapiens
Experimental: as §1, §3, §4

[17] = system: MCF7; test: cells; conditions: Homo sapiens
Experimental: as §1, §3, §4

Cc1ccccc1-c1cc(-c2ccccn2)nc(N[C@@H]2O[C@H](CO)[C@@H](O)[C@H](O)[C@H]2O)n1 [Compound 1, N-[4-(2-methylphenyl)-6-pyridin-2-ylpyrimidin-2-yl]-β-D-glucopyranosylamine]
cytotoxicity at 24 h, 25 μg/mL ([1]; C6, 25 μg/mL): 28.7%
cytotoxicity at 24 h, 50 μg/mL ([1]; C6, 50 μg/mL): 28.7%
cytotoxicity at 24 h, 75 μg/mL ([1]; C6, 75 μg/mL): 72.1%
cytotoxicity at 24 h, 100 μg/mL ([1]; C6, 100 μg/mL): 97.8%
MIC [2]: 500 µg/mL (≈ 1180 µM)
MIC [3]: 1000 µg/mL (≈ 2360 µM)
MIC [4]: 62.5 µg/mL (≈ 147 µM)
MIC ([4]; Streptococcus mutans, ATCC35668, 24 h, read-out: MIC): 62.5 to 125 µg/mL (≈ 147 to 294 µM)
MIC [5]: 1000 µg/mL (≈ 2360 µM)
MIC [6]: > 1000 µg/mL
MIC [7]: > 1000 µg/mL
MIC [8]: > 1000 µg/mL
MIC [9]: 500 µg/mL (≈ 1180 µM)
MIC [10]: 250 µg/mL (≈ 589 µM)
MIC [11]: > 1000 µg/mL
LC50 (concentration giving 50% net cell loss relative to time zero) ([12]; HT-29, read-out: LC50): > 500 µg/mL
GI50 ([12]; HT-29, HT29, MTT): 3.41 µg/mL (≈ 8.03 µM)
IC50 ([12]; HT-29, HT29, MTT, read-out: IC50): 198 µg/mL (≈ 466 µM)
IC (total growth inhibition) ([12]; HT-29, HT29, MTT, read-out: TGI): > 500 µg/mL
GI50 ([13]; MTT): 10.5 µg/mL (≈ 24.8 µM)
IC50 ([13]; MTT, read-out: IC50): 54.4 µg/mL (≈ 128 µM)
IC (total growth inhibition) ([13]; MTT, read-out: TGI): 35.1 µg/mL
LC50 (concentration causing 50% net cell loss) ([13]; read-out: LC50): 218 µg/mL (≈ 514 µM)
GI50 ([14]; MTT): 5.38 µg/mL (≈ 12.7 µM)
IC50 ([14]; MTT, read-out: IC50): > 500 µg/mL
IC (total growth inhibition) ([14]; MTT, read-out: TGI): > 500 µg/mL
LC50 (concentration causing 50% net cell loss relative to time zero) ([14]; read-out: LC50): > 500 µg/mL
LC50 (concentration giving 50% net cell loss relative to time zero) ([15]; read-out: LC50): 245 µg/mL (≈ 578 µM)
GI50 ([15]; C6, MTT): 6.34 µg/mL (≈ 14.9 µM)
IC50 ([15]; C6, MTT, read-out: IC50): 41.2 µg/mL (≈ 97.1 µM)
IC (total growth inhibition) ([15]; C6, MTT, read-out: TGI): 24.3 µg/mL
LC50 (concentration causing 50% net cell loss) ([16]; A549, read-out: LC50): > 500 µg/mL
GI50 ([16]; A549, MTT): 67.8 µg/mL (≈ 160 µM)
IC50 ([16]; A549, MTT, read-out: IC50): > 500 µg/mL
IC (total growth inhibition) ([16]; A549, MTT, read-out: TGI): > 500 µg/mL
LC50 (concentration causing 50% net cell loss relative to time zero) ([17]; MCF7, read-out: LC50): > 500 µg/mL
GI50 ([17]; MCF7, MTT): 1.81 µg/mL (≈ 4.26 µM)
IC50 ([17]; MCF7, MTT, read-out: IC50): > 500 µg/mL
IC (total growth inhibition) ([17]; MCF7, MTT, read-out: TGI): > 500 µg/mL
